From patent US11154591B2, “Methods of treating alcohol abuse disorder” (THE TRUSTEES OF COLUMBIA UNIVERSITY IN THE CITY OF NEW YORK, priority 2016, dated 2021)

Experiments:
[1] = tested on: C57BL/6J mice; experiment: Free-choice 10% ethanol/water drinking, Example 1; type: in vivo
Text: Animals (C57BL/6J mice) were offered two options for drinking water, one bottle with pure water, and the other bottle containing a 10% ethanol/water mix, both of which were available “free choice” from Day 1 of the experiment. […] In this experiment, as the mice became accustomed to the 10% ethanol mix offered, they began to drink more and more of the ethanol mix, so that when their liquid consumption was plotted as a ratio of 10% ethanol/water, the ratio quickly became greater than 1 (more 10% ethanol than pure water). The mice were allowed to establish a baseline consumption pattern, and after 30 Days, 5 cages consistently consumed more of the ethanol mix than pure water.
Beginning on Day 33, three cages were treated with Spexin at 25 micrograms/kg/day in 1×PBS; via IP injection (cages 1, 4, and 10). Mice were administered the 14 amino acid Spexin peptide with carboxy terminal amidation: Asn-Trp-Thr-Pro-Gln-Ala-Met-Leu-Tyr-Leu-Lys-Gly-Ala-Gln-NH2 (SEQ ID NO: 4; available from Phoenix Pharmaceuticals, Catalog No. 023-81). The other two cages (2 and 7) were injected with an equal volume of vehicle according to the same schedule. Animals were injected for 5 days (Days 33 through 37), then given two days off (Days 38 and 39), then injected again with Spexin for two more days (days 40 and 41). […]

[2] = tested on: male C57BL/6J mice; experiment: Free-choice 10% ethanol vs water intake, Example 2; type: in vivo
Experimental: To test this hypothesis, 5 groups of 5 male C57BL/6J mice (25 total) were housed for 40 days in plastic cages with 2 water bottles each: one containing water and the other 10% ethanol in water (10% ethanol). Fluids were available “free choice”, and intake from each bottle was recorded daily.
Over the 1st week, 10% ethanol and water were consumed at a mean ratio of 0.80±0.32:1.0. Intake of 10% ethanol then increased, plateauing at a 10% ethanol:water ratio of 2.0±0.17:1.0 by Days 22-30. This was assigned a value of 100% as baseline for the subsequent studies. Starting on Day 31, 15 mice were injected with Spexin in 1×PBS 25 μg/kg in PBS i.p. daily for 3 days. Mice were administered the 14 amino acid Spexin peptide with carboxy terminal amidation: Asn-Trp-Thr-Pro-Gln-Ala-Met-Leu-Tyr-Leu-Lys-Gly-Ala-Gln-NH2 (SEQ ID NO: 4; available from Phoenix Pharmaceuticals, Catalog No. 023-81). The other 10 mice were injected with 1×PBS (vehicle) alone.

[3] = tested on: rat stomach explant; conditions: cited from earlier work
[4] = tested on: obese (DIO) mice; conditions: injected into obese (DIO) mice; cited from earlier work

Asn-Trp-Thr-Pro-Gln-Ala-Met-Leu-Tyr-Leu-Lys-Gly-Ala-Gln-NH2 [Spexin]
ratio of 10% ethanol/water consumption ([1]; 25 micrograms/kg/day IP in 1xPBS, Days 33-37 and 40-41, cages 1, 4 and 10): dropped in all three cages | ratio of 10% ethanol/water consumption ([1]; 25 micrograms/kg/day IP, cages 4 and 10): below 1 | 10% ethanol:water ratio, % of baseline ([2]; 25 μg/kg i.p. daily, 1st day of Spexin administration, baseline ratio 2.0:1.0 = 100%): 80.7% | 10% ethanol:water ratio, % of baseline ([2]; 25 μg/kg i.p. daily, 2nd day of Spexin administration): 42.4% | 10% ethanol:water ratio, % of baseline ([2]; 25 μg/kg i.p. daily, 3rd day of Spexin administration): 42.4% | 10% ethanol:water ratio, % of baseline ([2]; 1st day post-Spexin): 100% | 10% ethanol:water ratio, % of baseline ([2]; 2nd day post-Spexin): 136% | ethanol intake ([2]; daily spexin injections, free choice): rapidly & significantly reduce ethanol intake | contractile effects [3]: demonstrates contractile effects | weight loss [4]: produces weight loss
